Literature values in patent publication US20240398651A1 (Neuro-Innovators, LLC., priority 2021, published 2024).

How the values were obtained:
[1] = previous clinical trials, compared with aspirin
[2] = in vivo

- hemorrhagic events [1]: fewer hemorrhagic events
- elimination half-life [2]: 11 to 13 h
SMILES: O=C1CCc2cc(OCCCCc3nnnn3C3CCCCC3)ccc2N1 [Cilostazol]
- incidence of recurrent stroke [1]: significantly reduce the incidence of recurrent stroke
